According to patent US11168073B2, “3,3-difluoroallylamines or salts thereof and pharmaceutical compositions comprising the same” (YUHAN CORPORATION, priority 2018, dated 2021):
Counter-ions that a name gives are not always drawn.

Key:
Format in all cases: biochemical
[1] = biological target: T1, recombinant human MAO-B (monoamine oxidase-B) (Homo sapiens, UniProt P27338); experiment: Activity evaluation on recombinant human MAO-B (Amplex Red/HRP-coupled assay, 1 mM benzylamine substrate); conditions: 1 mM benzylamine substrate, read-out: Inhibitory Activity (IC50, nM) MAO-B
T1 construct: purchased Sigma-Aldrich
T1 sequence (P27338 1-520): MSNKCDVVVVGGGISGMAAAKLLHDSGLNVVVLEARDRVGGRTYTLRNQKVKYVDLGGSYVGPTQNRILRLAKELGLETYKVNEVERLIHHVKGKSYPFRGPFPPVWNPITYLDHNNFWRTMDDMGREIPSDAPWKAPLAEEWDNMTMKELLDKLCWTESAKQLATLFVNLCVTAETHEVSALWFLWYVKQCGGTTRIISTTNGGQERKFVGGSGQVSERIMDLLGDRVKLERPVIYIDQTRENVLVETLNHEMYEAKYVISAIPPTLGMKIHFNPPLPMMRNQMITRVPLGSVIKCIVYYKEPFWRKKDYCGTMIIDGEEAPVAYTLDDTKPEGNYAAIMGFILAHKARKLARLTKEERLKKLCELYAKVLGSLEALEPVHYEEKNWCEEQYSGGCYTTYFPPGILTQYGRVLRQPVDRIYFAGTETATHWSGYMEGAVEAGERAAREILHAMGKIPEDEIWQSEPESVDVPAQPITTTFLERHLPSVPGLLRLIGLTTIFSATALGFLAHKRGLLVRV
How it was run: (§1)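 Compounds preincubated 30 min at 37 °C with enzyme in 50 mM sodium phosphate pH 7.4 (final DMSO <1%, 8-point 1:3 dilutions); reaction started with 200 uM Amplex Red, 1 U/mL HRP and substrate (MAO-A 0.5 mM tyramine, MAO-B 1 mM benzylamine, DAO 1 mM putrescine). Resorufin fluorescence (ex 544/em 590 nm) followed over 1-2 h; IC50 from four-parameter logistic fit.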

[2] = biological target: T2, recombinant human DAO (diamine oxidase) (Homo sapiens, UniProt P19801); experiment: Activity evaluation on recombinant human DAO (Amplex Red/HRP-coupled assay, 1 mM putrescine substrate); conditions: 1 mM putrescine substrate, read-out: Inhibitory Activity (IC50, nM) DAO
T2 construct: purchased R&D systems
T2 sequence (P19801 20-751): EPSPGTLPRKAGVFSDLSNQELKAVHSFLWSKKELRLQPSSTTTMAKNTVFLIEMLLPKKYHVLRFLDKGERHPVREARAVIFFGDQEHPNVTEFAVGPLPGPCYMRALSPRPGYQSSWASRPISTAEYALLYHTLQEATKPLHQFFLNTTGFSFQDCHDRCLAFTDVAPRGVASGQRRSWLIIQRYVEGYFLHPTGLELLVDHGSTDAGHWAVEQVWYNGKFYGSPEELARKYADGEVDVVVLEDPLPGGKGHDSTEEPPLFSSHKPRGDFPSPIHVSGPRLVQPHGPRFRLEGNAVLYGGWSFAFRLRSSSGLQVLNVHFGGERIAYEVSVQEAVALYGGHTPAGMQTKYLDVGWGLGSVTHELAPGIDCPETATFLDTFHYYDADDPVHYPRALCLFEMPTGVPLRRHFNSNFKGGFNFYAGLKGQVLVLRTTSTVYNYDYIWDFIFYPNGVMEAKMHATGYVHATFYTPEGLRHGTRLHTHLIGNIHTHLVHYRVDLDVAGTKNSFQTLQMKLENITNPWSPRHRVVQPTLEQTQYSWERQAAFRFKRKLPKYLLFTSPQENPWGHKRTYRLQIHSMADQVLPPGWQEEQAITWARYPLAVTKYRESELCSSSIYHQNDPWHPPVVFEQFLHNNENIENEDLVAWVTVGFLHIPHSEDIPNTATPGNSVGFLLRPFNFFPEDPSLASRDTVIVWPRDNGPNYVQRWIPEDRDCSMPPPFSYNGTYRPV
How it was run: as §1

[3] = biological target: T3, recombinant human MAO-A (monoamine oxidase-A) (Homo sapiens, UniProt P21397); experiment: Activity evaluation on recombinant human MAO-A (Amplex Red/HRP-coupled assay, 0.5 mM tyramine substrate); conditions: 0.5 mM tyramine substrate, read-out: Inhibitory Activity (IC50, nM) MAO-A
T3 construct: purchased Sigma-Aldrich
T3 sequence (P21397 1-527): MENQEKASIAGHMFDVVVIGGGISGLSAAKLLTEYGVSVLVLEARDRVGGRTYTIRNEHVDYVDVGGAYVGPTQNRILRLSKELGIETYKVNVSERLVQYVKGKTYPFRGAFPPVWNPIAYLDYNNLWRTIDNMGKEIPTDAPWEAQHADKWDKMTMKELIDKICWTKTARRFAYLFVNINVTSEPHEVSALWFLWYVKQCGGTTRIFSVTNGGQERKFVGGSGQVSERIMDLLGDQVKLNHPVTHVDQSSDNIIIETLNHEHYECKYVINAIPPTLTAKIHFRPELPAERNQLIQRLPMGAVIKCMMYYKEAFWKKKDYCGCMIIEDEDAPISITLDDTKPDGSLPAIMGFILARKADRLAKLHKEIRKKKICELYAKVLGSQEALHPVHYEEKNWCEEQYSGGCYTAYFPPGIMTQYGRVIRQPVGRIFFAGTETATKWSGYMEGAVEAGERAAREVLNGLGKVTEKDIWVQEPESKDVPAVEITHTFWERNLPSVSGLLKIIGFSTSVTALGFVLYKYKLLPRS
How it was run: as §1

recombinant human VAP-1 = biological target: T4, recombinant human VAP-1 (Homo sapiens, UniProt Q16853); experiment: Activity evaluation on recombinant human VAP-1 (Amplex Red/HRP-coupled hydrogen peroxide assay, benzylamine substrate); conditions: recombinant human VAP-1, benzylamine substrate; read-out: Inhibitory Activity (IC50, nM) human VAP-1
T4 construct: purchased R&D systems
T4 sequence (Q16853 1-763): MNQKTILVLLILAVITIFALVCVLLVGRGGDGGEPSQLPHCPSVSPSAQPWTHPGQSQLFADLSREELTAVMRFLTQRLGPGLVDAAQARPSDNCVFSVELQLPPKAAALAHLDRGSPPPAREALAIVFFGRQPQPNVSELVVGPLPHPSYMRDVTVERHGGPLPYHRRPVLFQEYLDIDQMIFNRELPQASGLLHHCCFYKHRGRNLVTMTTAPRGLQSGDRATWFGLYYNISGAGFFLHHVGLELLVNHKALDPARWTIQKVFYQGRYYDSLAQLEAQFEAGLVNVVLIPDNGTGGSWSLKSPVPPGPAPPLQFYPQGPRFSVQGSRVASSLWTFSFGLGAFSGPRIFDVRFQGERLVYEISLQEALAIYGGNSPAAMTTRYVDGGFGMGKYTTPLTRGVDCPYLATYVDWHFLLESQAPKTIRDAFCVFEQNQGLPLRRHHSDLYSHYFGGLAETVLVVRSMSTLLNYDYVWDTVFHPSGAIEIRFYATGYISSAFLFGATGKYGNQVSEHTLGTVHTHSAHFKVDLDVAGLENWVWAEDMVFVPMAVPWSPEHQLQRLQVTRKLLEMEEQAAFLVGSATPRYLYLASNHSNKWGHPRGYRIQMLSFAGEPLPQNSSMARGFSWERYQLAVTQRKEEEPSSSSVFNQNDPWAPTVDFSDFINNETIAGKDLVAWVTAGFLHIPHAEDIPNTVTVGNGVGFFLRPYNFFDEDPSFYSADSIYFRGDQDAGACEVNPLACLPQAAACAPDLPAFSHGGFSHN
How it was run: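 Recombinant human VAP-1 in 50 mM sodium phosphate pH 7.4 preincubated 30 min at 37 °C with compound (8-point 1:3 series, <1% DMSO), then 1 mM benzylamine, 200 uM Amplex Red, 1 U/mL HRP added. H2O2-derived resorufin fluorescence (ex 544/em 590) followed 1–2 h; IC50 from four-parameter fit of rate inhibition.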

Row | SMILES | IC50 [1] [nM] | IC50 [2] [nM] | IC50 [3] [nM] | IC50 (recombinant human VAP-1) [nM]
1 | Cc1cc(-c2ccc(N3CCNCC3)nc2)cnc1-n1cnn(CC(CN)=C(F)F)c1=O [Example 220, 2-[2-(aminomethyl)-3,3-difluoro-allyl]-4-[3-methyl-5-(6-piperazin-1-yl-3-pyridyl)-2-pyridyl]-1,2,4-triazol-3-one Ditrifluoroacetate] | > 100000 | 11000 | > 100000 | 1.1
2 | Cc1cc(-c2ccc3c(c2)NC(=O)CO3)cnc1-n1cnn(CC(CN)=C(F)F)c1=O [Example 221, 6-[6-[1-[2-(aminomethyl)-3,3-difluoro-allyl]-5-oxo-1,2,4-triazol-4-yl]-5-methyl-3-pyridyl]-4H-1,4-benzoxazin-3-one Trifluoroacetate] | 9000 | 2700 | 20000 | 0.3
3 | COCCNc1ncc(-c2cnc(-n3cnn(CC(CN)=C(F)F)c3=O)c(C)c2)cn1 [Example 222, 2-[2-(aminomethyl)-3,3-difluoro-allyl]-4-[5-[2-(2-methoxyethylamino)pyrimidin-5-yl]-3-methyl-2-pyridyl]-1,2,4-triazol-3-one Trifluoroacetate] | > 100000 | 4000 | > 100000 | 1
4 | Cc1cc(-c2ccc3c(c2)OCCN3C)cnc1-n1cnn(CC(CN)=C(F)F)c1=O [Example 223, 2-[2-(aminomethyl)-3,3-difluoro-allyl]-4-[3-methyl-5-(4-methyl-2,3-dihydro-1,4-benzoxazin-7-yl)-2-pyridyl]-1,2,4-triazol-3-one Trifluoroacetate] | 38000 | 37000 | > 10000 | 1.5
5 | Cc1cc(-c2ccc3sc(N)nc3c2)cnc1-n1cnn(CC(CN)=C(F)F)c1=O [Example 226, 4-[5-(2-amino-1,3-benzothiazol-5-yl)-3-methyl-2-pyridyl]-2-[2-(aminomethyl)-3,3-difluoro-allyl]-1,2,4-triazol-3-one Trifluoroacetate] | 11000 | > 100000 | > 100000 | 0.5
6 | Cc1cc(-c2ccc3ocnc3c2)cnc1-n1cnn(CC(CN)=C(F)F)c1=O [Example 229, 2-[2-(aminomethyl)-3,3-difluoro-allyl]-4-[5-(1,3-benzoxazol-5-yl)-3-methyl-2-pyridyl]-1,2,4-triazol-3-one Trifluoroacetate] | 4100 | 97000 | > 10000 | 0.6

Now those with a lower IC50 [1], led by results:

Row | IC50 [1] [nM] | IC50 [2] [nM] | IC50 [3] [nM] | IC50 (recombinant human VAP-1) [nM] | SMILES
7 | 1900 | 5500 | > 100000 | 0.8 | COc1cc(-c2cnc(-n3cnn(CC(CN)=C(F)F)c3=O)c(C)c2)cc(OC)c1OC [Example 224, 2-[2-(aminomethyl)-3,3-difluoro-allyl]-4-[3-methyl-5-(3,4,5-trimethoxyphenyl)-2-pyridyl]-1,2,4-triazol-3-one Trifluoroacetate]
8 | 1600 | 14000 | > 100000 | 0.5 | COc1ccc(-c2cnc(-n3cnn(CC(CN)=C(F)F)c3=O)c(C)c2)cn1 [Example 225, 2-[2-(aminomethyl)-3,3-difluoro-allyl]-4-[5-(6-methoxy-3-pyridyl)-3-methyl-2-pyridyl]-1,2,4-triazol-3-one Trifluoroacetate]
9 | 340 | 4800 | > 100000 | 0.7 | Cc1cc(-c2ccc3nonc3c2)cnc1-n1cnn(CC(CN)=C(F)F)c1=O [Example 227, 2-[2-(aminomethyl)-3,3-difluoro-allyl]-4-[5-(2,1,3-benzoxadiazol-5-yl)-3-methyl-2-pyridyl]-1,2,4-triazol-3-one Trifluoroacetate]
10 | 3300 | 7700 | > 100000 | 0.6 | Cc1cc(-c2cnc3[nH]ccc3c2)cnc1-n1cnn(CC(CN)=C(F)F)c1=O [Example 228, 2-[2-(aminomethyl)-3,3-difluoro-allyl]-4-[3-methyl-5-(1H-pyrrolo[2,3-b]pyridin-5-yl)-2-pyridyl]-1,2,4-triazol-3-one Trifluoroacetate]
